Assay results published in patent publication US20250042916A1 (ACONCAGUA BIO, INC., priority 2023, published 2025).
pEC50: −log10 of the molar value.

target: human calcitonin receptor (CTR) and RAMP3 (AMY3) in COS-7 cells (Homo sapiens, UniProt O60896+P30988); assay: Amylin Receptor cAMP Assay I; type: cell-based; conditions: values marked *: Amylin Receptor cAMP Assay I; COS-7/AMY3 cells; read-out: Amylin Receptor cAMP Stimulation Activity: EC50
Description: Amylin Receptor cAMP Assay I
AMYRs are heterodimers of the class B calcitonin (CT) G-protein-coupled receptor (CTR) and receptor activity-modifying proteins (RAMPs). All three RAMPs can interact with the CTR and form AMY1, AMY2, AMY3 with RAMP1, RAMP2 and RAMP3, respectively. Like other class B1 GPCRs, the CT receptor family is canonically coupled to Gs-mediated cAMP production, and measurement of cAMP accumulation has been the primary assay used to determine peptide selectivity and potency.
To optimize functional activity directed toward Gas coupling, COS-7 cells were stably transfected with human calcitonin receptor (CTR) and RAMP3, simultaneously. 100× concentration of compound working solutions were prepared (Agilent Technologies Bravo) with 4-fold serial dilution in 384-well Echo LDV plate (Labcyte, Cat #LP-0200). 100 nL/well 100× concentration of compound working solutions were moved to 384-well white low volume plate (Greiner, Cat #784075) using Labcyte ECHO550. 1×10^5 cells/mL COS-7/CTR or COS-7/AMY3 (HD Biosciences) cell suspensions prepared with assay buffer [DPBS containing 0.5 mM IBMX (Sigma, Cat #15879) and 0.1% BSA (GENVIEW, Cat #FA016-100 g)], 10 μL cell suspensions were added to each well of previous generated assay plate which already contains 100 nL compound at 100× concentration using ThermoFisher Multidrop Combi (1000 cells/well). Seal the plate and incubate at 37° C. with 5% CO2 for 30 min.
After incubation, the cAMP assay signal was generated using cAMP Hi-range Kit (Cisbio). 5 μL cAMP-d2 working solution was added to each well, followed by 5 μL Anti-cAMP antibody-cryptate working solution which was added to each well using ThermoFisher Multidrop Combi. The samples were then incubated at room temperature for 1 hour protected from light. the fluorescence was read at 665 and 615 nm with Reader PerkinElmer EnVision.

Chain of human calcitonin receptor (CTR) and RAMP3 (AMY3) in COS-7 cells (P30988 25-474): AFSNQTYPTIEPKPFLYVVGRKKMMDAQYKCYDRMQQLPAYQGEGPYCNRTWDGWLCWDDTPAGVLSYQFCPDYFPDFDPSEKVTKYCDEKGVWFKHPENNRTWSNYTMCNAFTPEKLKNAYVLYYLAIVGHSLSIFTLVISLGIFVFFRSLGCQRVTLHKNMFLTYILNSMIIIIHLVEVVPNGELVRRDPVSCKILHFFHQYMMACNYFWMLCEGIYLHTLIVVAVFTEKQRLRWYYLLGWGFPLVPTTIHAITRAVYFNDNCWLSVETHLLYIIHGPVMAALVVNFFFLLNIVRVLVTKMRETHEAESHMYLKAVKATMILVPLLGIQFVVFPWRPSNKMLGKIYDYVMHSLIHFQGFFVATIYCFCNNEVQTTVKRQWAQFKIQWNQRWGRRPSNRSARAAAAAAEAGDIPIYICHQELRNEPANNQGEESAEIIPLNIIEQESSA
Chain of human calcitonin receptor (CTR) and RAMP3 (AMY3) in COS-7 cells (O60896 24-148): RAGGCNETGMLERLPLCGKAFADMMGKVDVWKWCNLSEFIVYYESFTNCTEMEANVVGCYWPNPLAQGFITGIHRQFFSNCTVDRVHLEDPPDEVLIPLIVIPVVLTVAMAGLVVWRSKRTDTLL

Row | Structure (SMILES) | pEC50
1 | CC(C)Cc1nc(CCc2ccc(F)cc2)c(-c2nnc(C(F)(F)F)o2)c(-c2ccc(C(=O)NCc3ccc(F)c(F)c3)s2)c1C(N)=O [Compound 148, N-(3,4-difluorophenyl)methyl-5-{5-carbamoyl-2-[2-(p-fluorophenyl)ethyl]-6-isobutyl-3-[5-(trifluoromethyl)-1,3,4-oxadiazol-2-yl]-4-pyridyl}-2-thenamide] | 6.68
2 | Cc1nnc(-c2c(CCc3ccc(F)cc3)nc(CC(C)C)c(C(N)=O)c2-c2ccc(C(=O)NCc3ccc(F)c(F)c3)s2)s1 [Compound 149, N-(3,4-difluorophenyl)methyl-5-{5-carbamoyl-2-[2-(p-fluorophenyl)ethyl]-6-isobutyl-3-(5-methyl-1,3,4-thiadiazol-2-yl)-4-pyridyl}-2-thenamide] | 7.72
3 | Cc1ncoc1-c1c(CCc2ccc(F)cc2)nc(CC(C)C)c(C(N)=O)c1-c1ccc(C(=O)NCc2ccc(F)c(F)c2)s1 [Compound 153, N-(3,4-difluorophenyl)methyl-5-{5-carbamoyl-2-[2-(p-fluorophenyl)ethyl]-6-isobutyl-3-(4-methyl-1,3-oxazol-5-yl)-4-pyridyl}-2-thenamide] | 7.92
4 | Cc1nc(-c2c(CCc3ccc(F)cc3)nc(CC(C)C)c(C(N)=O)c2-c2ccc(C(=O)NCc3ccc(F)c(F)c3)s2)no1 [Compound 154, N-(3,4-difluorophenyl)methyl-5-{5-carbamoyl-2-[2-(p-fluorophenyl)ethyl]-6-isobutyl-3-(5-methyl-1,2,4-oxadiazol-3-yl)-4-pyridyl}-2-thenamide] | 7.16
5 | Cc1nnc(-c2c(CCc3ccc(F)cc3)nc(CC(C)C)c(S(C)(=O)=O)c2-c2ccc(C(=O)NCc3ccc(F)c(F)c3)s2)o1 [Compound 155] | < 6.00
6 | Cc1cc(CNc2nccc3cc(-c4c(C(N)=O)c(CC(C)C)nc(CCc5ccc(F)cc5)c4-c4nnc(C)o4)sc23)ccn1 [Compound 156] | 5.92
7 | Cc1ccc(CNc2nccc3cc(-c4c(C(N)=O)c(CC(C)C)nc(CCc5ccc(F)cc5)c4-c4nnc(C)o4)sc23)cn1 [Compound 157] | 6.20
8 | CC(C)Cc1nc(CCc2ccc(F)cc2)c(-c2cnn(C)c2)c(-c2ccc(C(=O)NCc3ccc(F)c(F)c3)s2)c1C(N)=O [Compound 159] | 7.04
9 | Cc1cc(-c2c(CCc3ccc(F)cc3)nc(CC(C)C)c(C(N)=O)c2-c2ccc(C(=O)NCc3ccc(F)c(F)c3)s2)ccn1 [Compound 160] | 7.59
10 | Cc1nnc(-c2c(CCc3ccc(F)cc3)nc(CC(C)C)c(C(N)=O)c2-c2ccc3c(NCc4ccc(F)c(F)c4)nccc3c2)o1 [Compound 162] | 7.13
11 | Cc1nnc(-c2c(COc3ccc(F)cc3)nc(CC(C)C)c(C(N)=O)c2-c2cc3ccnc(NCc4ccc(F)c(F)c4)c3s2)o1 [Compound 163] | 7.40
12 | CO[C@@H]1CCCN(C(=O)c2ccc(-c3c(C(N)=O)c(CC(C)C)nc(CCc4ccc(F)cc4)c3-c3nnc(C)o3)s2)C1 [Compound 165] | < 6.00
13 | CO[C@H]1CCCN(C(=O)c2ccc(-c3c(C(N)=O)c(CC(C)C)nc(CCc4ccc(F)cc4)c3-c3nnc(C)o3)s2)C1 [Compound 166] | < 6.00
14 | Cc1nnc(-c2c(CCc3ccc(F)cc3)nc(OC(C)C)c(C(N)=O)c2-c2ccc(C(=O)NCc3ccc(F)c(F)c3)s2)o1 [Compound 167, 4-(5-((3,4-difluorobenzyl)carbamoyl)thiophen-2-yl)-6-(4-fluorophenethyl)-2-isopropoxy-5-(5-methyl-1,3,4-oxadiazol-2-yl)nicotinamide] | 6.47
15 | Cc1nnc(-c2c(CCc3ccc(F)cc3)nc(NC(C)C)c(C(N)=O)c2-c2ccc(C(=O)NCc3ccc(F)c(F)c3)s2)o1 [Compound 168, 4-(5-((3,4-difluorobenzyl)carbamoyl)thiophen-2-yl)-6-(4-fluorophenethyl)-2-(isopropylamino)-5-(5-methyl-1,3,4-oxadiazol-2-yl)nicotinamide] | 6.27
16 | Cc1nnc(-c2c(CCc3ccc(F)cc3)nc(CC(C)C)c(C(N)=O)c2N2CCC(C(=O)NCc3ccc(F)c(F)c3)C2)o1 (centres unmarked) [Compound 170, 4-(3-((3,4-difluorobenzyl)carbamoyl)pyrrolidin-1-yl)-6-(4-fluorophenethyl)-2-isobutyl-5-(5-methyl-1,3,4-oxadiazol-2-yl)nicotinamide] | 5.43
17 | Cc1nnc(-c2c(CCc3ccc(F)cc3)nc(CC(C)C)c(C(N)=O)c2-c2ccc3c(ccn3CC3CCc4ccccc43)c2)o1 (centres unmarked) [Compound 177, 4-(1-((2,3-dihydro-1H-inden-1-yl)methyl)-1H-indol-5-yl)-6-(4-fluorophenethyl)-2-isobutyl-5-(5-methyl-1,3,4-oxadiazol-2-yl)nicotinamide] | 6.40

Other lines, results leading:

Row | pEC50 | Structure (SMILES)
18 | 8.46 | Cc1cnc(-c2c(CCc3ccc(F)cc3)nc(CC(C)C)c(C(N)=O)c2-c2ccc(C(=O)NCc3ccc(F)c(F)c3)s2)o1 [Compound 150, N-(3,4-difluorophenyl)methyl-5-{5-carbamoyl-2-[2-(p-fluorophenyl)ethyl]-6-isobutyl-3-(5-methyl-1,3-oxazol-2-yl)-4-pyridyl}-2-thenamide]
19 | 6.87 | Cc1cc(-c2c(CCc3ccc(F)cc3)nc(CC(C)C)c(C(N)=O)c2-c2ccc(C(=O)NCc3ccc(F)c(F)c3)s2)on1 [Compound 151, N-(3,4-difluorophenyl)methyl-5-{5-carbamoyl-2-[2-(p-fluorophenyl)ethyl]-6-isobutyl-3-(3-methyl-5-isoxazolyl)-4-pyridyl}-2-thenamide]
20 | 7.94 | Cc1ncc(-c2c(CCc3ccc(F)cc3)nc(CC(C)C)c(C(N)=O)c2-c2ccc(C(=O)NCc3ccc(F)c(F)c3)s2)o1 [Compound 152, N-(3,4-difluorophenyl)methyl-5-{5-carbamoyl-2-[2-(p-fluorophenyl)ethyl]-6-isobutyl-3-(2-methyl-1,3-oxazol-5-yl)-4-pyridyl}-2-thenamide]
21 | 6.92 | Cc1nnc(-c2c(NCc3ccc(F)cc3)nc(CC(C)C)c(C(N)=O)c2-c2ccc(C(=O)NCc3ccc(F)c(F)c3)s2)o1 [Compound 158]
22 | 7.89 | Cc1nnc(-c2c(CCc3ccc(F)cc3)nc(CC(C)C)c(C(N)=O)c2-c2cc3ccnc(N[C@@H]4CCc5ncccc54)c3s2)o1 [Compound 161]
23 | 6.49 | Cc1nnc(-c2c(COc3ccc(F)cc3)nc(CC(C)C)c(C(N)=O)c2-c2ccc(C(=O)NCc3ccc(F)c(F)c3)s2)o1 [Compound 164]
24 | 6.91 | Cc1nc(-c2c(CCc3ccc(F)cc3)nc(CC(C)C)c(C(N)=O)c2-c2ccc(C(=O)NCc3ccc(F)c(F)c3)s2)co1 [Compound 169, 4-(5-((3,4-difluorobenzyl)carbamoyl)thiophen-2-yl)-6-(4-fluorophenethyl)-2-isobutyl-5-(2-methyloxazol-4-yl)nicotinamide]
25 | 7.22 | Cc1ccc(-c2c(CCc3ccc(F)cc3)nc(CC(C)C)c(C(N)=O)c2-c2ccc(C(=O)NCc3ccc(F)c(F)c3)s2)cn1 [Compound 171, 4-(5-((3,4-difluorobenzyl)carbamoyl)thiophen-2-yl)-2-(4-fluorophenethyl)-6-isobutyl-6′-methyl-[3, 3′-bipyridine]-5-carboxamide]
26 | 5.94 | Cc1nnc(-c2c(CC3(c4ccc(F)cc4)CC3)nc(CC(C)C)c(C(N)=O)c2-c2ccc(C(=O)NCc3ccc(F)c(F)c3)s2)o1 [Compound 172, 4-(5-((3,4-difluorobenzyl)carbamoyl)thiophen-2-yl)-6-((1-(4-fluorophenyl)cyclopropyl)methyl)-2-isobutyl-5-(5-methyl-1,3,4-oxadiazol-2-yl)nicotinamide]
27 | 6.39 | Cc1nnc(-c2c(COc3ccc(F)cc3)nc(CC(C)C)c(C(N)=O)c2-c2cc3ccnc(N[C@@H]4CCc5ncccc54)c3s2)o1 [Compound 173, (R)-4-(7-((6,7-dihydro-5H-cyclopenta[b]pyridin-5-yl)amino)thieno[2,3-c]pyridin-2-yl)-6-((4-fluorophenoxy)methyl)-2-isobutyl-5-(5-methyl-1,3,4-oxadiazol-2-yl)nicotinamide]
28 | 6.68 | Cc1nnc(-c2c(COc3ccc(F)cc3)nc(CC(C)C)c(C(N)=O)c2-c2cc3ccnc(N[C@@H]4CCc5ccccc54)c3s2)o1 [Compound 175, (R)-4-(7-((2,3-dihydro-1H-inden-1-yl)amino)thieno[2,3-c]pyridin-2-yl)-6-((4-fluorophenoxy)methyl)-2-isobutyl-5-(5-methyl-1,3,4-oxadiazol-2-yl)nicotinamide]
29 | 5.89 | Cc1nnc(-c2c(CC(C)(C)c3ccc(F)cc3)nc(CC(C)C)c(C(N)=O)c2-c2ccc(C(=O)NCc3ccc(F)c(F)c3)s2)o1 [Compound 176, 4-(5-((3,4-difluorobenzyl)carbamoyl)thiophen-2-yl)-6-(2-(4-fluorophenyl)-2-methylpropyl)-2-isobutyl-5-(5-methyl-1,3,4-oxadiazol-2-yl)nicotinamide]
